Our source for the IC50 values is patent publication US12516056B2, “Compounds for inhibition of janus kinase 1” (MANKIND PHARMA LTD., priority 2019, dated 2026).

Where a name gives a salt, the structure may show the parent alone. Read-outs that look alike come from different tables or passages of the source. Bounds are passed on as bounds.

Test [1] has as its system IFN-γ production in NK 92 cells by IL-12. In words: IFN-γ production in NK 92 cells by IL-12 (ELISA). The following applies: NK92, IFN-γ secretion, read-out: Cell Based Assay (μM) NK-92/IL-2/IFN-γ. For orientation: An ELISA detects its analyte on a solid surface through an enzyme-linked reagent.
The test system of test [2] is STAT5 phosphorylation by GMCSF in TF-1 cells. In words: JAK cellular assay: STAT5 phosphorylation by GMCSF in TF-1 cells (HTRF). The conditions noted are these: TF-1 cells, GMCSF 5 ng/ml, pSTAT5 HTRF, read-out: Cell Based Assay (μM) TF-1/GMCSF/pSTAT5. The test is classed as cell-based. Summed up: (§1)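 Phospho-STAT3 (IL-6, 30 ng/ml) and phospho-STAT5 (GMCSF, 5 ng/ml) read by HTRF in lysates after 20 min cytokine exposure, minus unstimulated-cell background. Cells were serum-starved overnight, plated at 120,000/well, given compound 30 min at 37 °C beforehand; DMSO 0.2% final.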
Background: TR-FRET usually uses a lanthanide donor and a delayed reading to cut background.

Test [3] relates to STAT3 phosphorylation by IL-6 in TF-1 cells. As to the kind of experiment: JAK cellular assay: STAT3 phosphorylation by IL-6 in TF-1 cells (HTRF). The test is classed as cell-based. The conditions noted are these: IL-6 30 ng/ml, pSTAT3 HTRF, read-out: Cell Based Assay (μM) TF-1/IL-6/pSTAT3. Summed up: as §1
For another test, the target named is T1, Recombinant JAK1 (Homo sapiens, UniProt P23458).
T1 construct: purchased Carna Biosciences
In words: JAK biochemical assay (LANCE Ultra TR-FRET), JAK1. The following applies: recombinant JAK1, TR-FRET; read-out: Biochemical Assay (μM) JAK1. Summed up:
(§2)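 TR-FRET read-out of ULight substrate phosphorylation by recombinant kinase gives % inhibition relative to vehicle. The assay buffer is HEPES pH 7.5 with EGTA, MgCl2, DTT and Tween-20.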

The target of a further test is T2, Recombinant JAK3 (Homo sapiens, UniProt P52333).
T2 construct: purchased Carna Biosciences
T2 sequence (P52333 1-1124): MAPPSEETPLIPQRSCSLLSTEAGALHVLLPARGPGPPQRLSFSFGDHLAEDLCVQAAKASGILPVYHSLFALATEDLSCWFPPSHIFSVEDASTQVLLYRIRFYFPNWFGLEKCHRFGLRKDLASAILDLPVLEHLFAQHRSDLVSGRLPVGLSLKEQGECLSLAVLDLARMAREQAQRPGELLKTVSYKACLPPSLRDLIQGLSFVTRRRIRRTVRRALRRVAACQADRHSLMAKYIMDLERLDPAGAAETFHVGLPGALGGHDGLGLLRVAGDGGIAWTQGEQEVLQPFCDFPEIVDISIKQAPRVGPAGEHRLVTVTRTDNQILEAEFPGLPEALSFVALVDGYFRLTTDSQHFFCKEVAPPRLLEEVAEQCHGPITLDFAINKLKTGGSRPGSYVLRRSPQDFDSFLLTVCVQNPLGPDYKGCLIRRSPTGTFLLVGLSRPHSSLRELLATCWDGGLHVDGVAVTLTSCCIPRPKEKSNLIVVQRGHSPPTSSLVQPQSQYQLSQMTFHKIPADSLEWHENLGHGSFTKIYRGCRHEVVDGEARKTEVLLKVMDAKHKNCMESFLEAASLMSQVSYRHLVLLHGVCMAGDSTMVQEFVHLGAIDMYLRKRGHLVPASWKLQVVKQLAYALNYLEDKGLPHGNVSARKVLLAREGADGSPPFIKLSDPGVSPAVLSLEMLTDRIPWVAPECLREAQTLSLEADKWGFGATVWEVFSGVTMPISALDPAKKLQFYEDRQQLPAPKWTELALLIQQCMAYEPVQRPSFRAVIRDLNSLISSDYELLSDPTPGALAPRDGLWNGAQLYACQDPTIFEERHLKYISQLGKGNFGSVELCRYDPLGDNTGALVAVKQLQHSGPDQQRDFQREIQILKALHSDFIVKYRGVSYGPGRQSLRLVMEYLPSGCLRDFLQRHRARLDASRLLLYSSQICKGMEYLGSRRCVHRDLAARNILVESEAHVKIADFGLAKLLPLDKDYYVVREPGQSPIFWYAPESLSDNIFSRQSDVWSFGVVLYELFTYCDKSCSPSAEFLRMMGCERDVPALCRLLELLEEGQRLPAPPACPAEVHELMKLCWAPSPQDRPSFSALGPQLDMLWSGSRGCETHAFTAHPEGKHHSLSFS
As to the kind of experiment: JAK biochemical assay (LANCE Ultra TR-FRET), JAK3. The following applies: recombinant JAK3, TR-FRET; read-out: Biochemical Assay (μM) JAK3. In a few lines: as §2

Another test concerns the target T3, Recombinant TYK2 (Homo sapiens, UniProt P29597).
T3 construct: purchased Carna Biosciences
As to the kind of experiment: JAK biochemical assay (LANCE Ultra TR-FRET), TYK2. The conditions noted are these: recombinant TYK2, TR-FRET; read-out: Biochemical Assay (μM) TYK2. Summed up:
as §2

Test [4] concerns STAT5 phosphorylation by IL-2 in HT-2 cells. As to the kind of experiment: STAT5 phosphorylation by IL-2 in HT-2 cells (HTRF). The test is classed as cell-based. The conditions noted are these: IL-2 50 U/ml, pSTAT5 HTRF, read-out: Cell Based Assay (μM) HT-2/IL-2/pSTAT5. Summed up: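 Readout is HTRF detection of phospho-STAT5 in lysates, corrected for signal from unstimulated cells. Before lysis, HT-2 cells starved in 10% FBS medium received compound for 30 min (0.2% DMSO final, 37 °C), followed by 50 U/ml recombinant human IL-2 for 20 min.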

Another test has as its target T4, Recombinant JAK2 (Homo sapiens, UniProt O60674).
T4 construct: purchased Carna Biosciences
In words: JAK biochemical assay (LANCE Ultra TR-FRET), JAK2. The following applies: recombinant JAK2, TR-FRET; read-out: Biochemical Assay (μM) JAK2. Summed up:
as §2

T1 sequence (P23458 whole entry): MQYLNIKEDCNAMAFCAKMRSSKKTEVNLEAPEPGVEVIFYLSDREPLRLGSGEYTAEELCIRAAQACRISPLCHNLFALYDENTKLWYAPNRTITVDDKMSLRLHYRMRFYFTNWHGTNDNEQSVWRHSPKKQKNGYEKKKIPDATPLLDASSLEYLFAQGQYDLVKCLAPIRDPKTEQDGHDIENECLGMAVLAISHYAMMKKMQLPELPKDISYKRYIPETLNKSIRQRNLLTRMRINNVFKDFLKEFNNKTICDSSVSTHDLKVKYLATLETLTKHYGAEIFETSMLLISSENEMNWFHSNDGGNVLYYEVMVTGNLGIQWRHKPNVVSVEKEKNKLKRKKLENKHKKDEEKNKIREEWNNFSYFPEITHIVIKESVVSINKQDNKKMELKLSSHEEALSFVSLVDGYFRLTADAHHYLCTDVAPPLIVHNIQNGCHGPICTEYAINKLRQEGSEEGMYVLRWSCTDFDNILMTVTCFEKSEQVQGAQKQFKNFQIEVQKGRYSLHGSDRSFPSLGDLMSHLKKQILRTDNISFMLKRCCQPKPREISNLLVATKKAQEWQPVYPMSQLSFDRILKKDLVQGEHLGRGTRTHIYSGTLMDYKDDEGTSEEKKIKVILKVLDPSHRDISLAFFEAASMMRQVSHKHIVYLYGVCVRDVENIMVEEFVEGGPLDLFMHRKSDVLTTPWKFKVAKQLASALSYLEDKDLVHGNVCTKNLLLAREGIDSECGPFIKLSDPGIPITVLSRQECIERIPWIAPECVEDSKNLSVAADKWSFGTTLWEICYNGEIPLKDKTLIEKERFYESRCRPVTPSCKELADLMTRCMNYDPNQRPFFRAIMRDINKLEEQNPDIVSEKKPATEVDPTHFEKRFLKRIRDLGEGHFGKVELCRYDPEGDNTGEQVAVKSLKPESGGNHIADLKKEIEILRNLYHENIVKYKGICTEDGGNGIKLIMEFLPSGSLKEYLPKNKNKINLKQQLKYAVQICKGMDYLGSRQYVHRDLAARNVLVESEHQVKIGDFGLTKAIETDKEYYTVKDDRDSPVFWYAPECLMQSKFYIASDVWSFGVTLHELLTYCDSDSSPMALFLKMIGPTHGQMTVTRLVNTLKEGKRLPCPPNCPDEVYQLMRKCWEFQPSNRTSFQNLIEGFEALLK
T3 sequence (P29597 whole entry): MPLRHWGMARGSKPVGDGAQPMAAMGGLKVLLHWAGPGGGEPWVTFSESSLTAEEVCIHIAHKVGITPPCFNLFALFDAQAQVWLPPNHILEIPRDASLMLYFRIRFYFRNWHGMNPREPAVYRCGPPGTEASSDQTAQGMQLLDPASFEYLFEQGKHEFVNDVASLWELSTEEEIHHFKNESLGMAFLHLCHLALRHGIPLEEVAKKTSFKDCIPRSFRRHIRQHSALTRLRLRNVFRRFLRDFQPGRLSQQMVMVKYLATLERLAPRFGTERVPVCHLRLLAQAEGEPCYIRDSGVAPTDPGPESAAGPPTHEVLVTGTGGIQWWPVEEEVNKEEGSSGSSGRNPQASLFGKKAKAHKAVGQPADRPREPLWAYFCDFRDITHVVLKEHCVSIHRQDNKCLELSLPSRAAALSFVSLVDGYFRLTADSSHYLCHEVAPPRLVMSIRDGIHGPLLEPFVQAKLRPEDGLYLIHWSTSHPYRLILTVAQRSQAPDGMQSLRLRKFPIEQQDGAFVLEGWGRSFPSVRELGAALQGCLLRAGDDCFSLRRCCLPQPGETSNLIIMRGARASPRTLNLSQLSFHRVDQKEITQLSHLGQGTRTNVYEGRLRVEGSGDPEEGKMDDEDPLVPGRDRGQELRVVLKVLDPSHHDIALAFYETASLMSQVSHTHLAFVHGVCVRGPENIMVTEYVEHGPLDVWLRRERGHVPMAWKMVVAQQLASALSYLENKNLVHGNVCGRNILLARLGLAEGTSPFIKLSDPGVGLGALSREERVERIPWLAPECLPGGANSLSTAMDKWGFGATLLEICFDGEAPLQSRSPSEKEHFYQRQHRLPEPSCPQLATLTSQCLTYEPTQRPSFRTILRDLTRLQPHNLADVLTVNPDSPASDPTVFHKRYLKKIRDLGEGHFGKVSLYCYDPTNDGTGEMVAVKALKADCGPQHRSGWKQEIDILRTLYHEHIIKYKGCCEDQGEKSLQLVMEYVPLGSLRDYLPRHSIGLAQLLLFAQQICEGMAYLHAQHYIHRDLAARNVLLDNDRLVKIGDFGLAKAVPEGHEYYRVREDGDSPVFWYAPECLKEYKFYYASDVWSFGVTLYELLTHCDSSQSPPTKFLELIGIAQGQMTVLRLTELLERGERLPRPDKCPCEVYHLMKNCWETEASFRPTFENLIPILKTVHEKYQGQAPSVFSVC
T4 sequence (O60674 whole entry): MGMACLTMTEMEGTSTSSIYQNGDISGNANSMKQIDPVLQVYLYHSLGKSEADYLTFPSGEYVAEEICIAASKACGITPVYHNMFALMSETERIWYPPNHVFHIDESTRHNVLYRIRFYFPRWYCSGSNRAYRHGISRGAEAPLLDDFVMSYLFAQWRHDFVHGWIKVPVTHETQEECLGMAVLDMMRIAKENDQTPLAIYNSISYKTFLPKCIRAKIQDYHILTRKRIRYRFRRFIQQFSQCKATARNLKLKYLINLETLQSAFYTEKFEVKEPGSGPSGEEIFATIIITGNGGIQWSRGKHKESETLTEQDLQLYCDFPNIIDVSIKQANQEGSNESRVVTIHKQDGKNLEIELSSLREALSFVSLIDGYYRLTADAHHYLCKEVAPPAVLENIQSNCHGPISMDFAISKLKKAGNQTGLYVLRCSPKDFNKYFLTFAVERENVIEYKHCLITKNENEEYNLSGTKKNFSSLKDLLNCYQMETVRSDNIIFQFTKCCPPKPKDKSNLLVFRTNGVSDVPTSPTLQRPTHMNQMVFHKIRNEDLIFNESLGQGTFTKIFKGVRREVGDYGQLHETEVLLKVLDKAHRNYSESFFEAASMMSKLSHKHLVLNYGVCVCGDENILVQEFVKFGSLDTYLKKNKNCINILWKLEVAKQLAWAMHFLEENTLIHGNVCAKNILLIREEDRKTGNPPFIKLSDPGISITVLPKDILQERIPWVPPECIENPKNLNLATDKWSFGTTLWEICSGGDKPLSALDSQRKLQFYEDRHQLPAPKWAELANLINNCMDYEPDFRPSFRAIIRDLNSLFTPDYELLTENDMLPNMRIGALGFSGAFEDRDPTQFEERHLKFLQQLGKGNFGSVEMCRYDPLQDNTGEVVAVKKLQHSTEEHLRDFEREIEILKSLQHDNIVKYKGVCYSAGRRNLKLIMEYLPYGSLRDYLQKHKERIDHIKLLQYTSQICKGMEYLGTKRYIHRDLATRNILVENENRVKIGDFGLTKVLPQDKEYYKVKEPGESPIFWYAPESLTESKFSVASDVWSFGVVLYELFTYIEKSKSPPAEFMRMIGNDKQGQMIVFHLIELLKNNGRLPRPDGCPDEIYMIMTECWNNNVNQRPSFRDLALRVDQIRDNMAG

As for `CS(=O)(=O)CC[C@H](c1ccc(-n2cc(-c3ccnc4[nH]cnc34)cn2)nc1)C(F)(F)F` [Example 1182, 7-(1-(5-((R)-1,1,1-trifluoro-4-(methylsulfonyl)butan-2-yl)pyridin-2-yl)-1H-pyrazol-4-yl)-3H-imidazo[4,5-b]pyridine], the IC50 in test [1] is over 3 µM; in test [2] (Homo sapiens), over 1 µM; in test [3] (Homo sapiens, TF-1, TF-1 cells), 0.35 µM; at Recombinant JAK1 it was 0.015 µM; on Recombinant JAK3, 0.041 µM; on Recombinant TYK2 it was over 1 µM. Besides, the IC50 in test [4] (HT2, HT-2 cells) was determined as 0.9 µM.

Consider `CN1CCC([C@](O)(c2ccc(-n3cc(-c4ccnc5[nH]cnc45)cn3)nc2)C(F)(F)F)C1` (stereo partly drawn) [Example 1234, (S)-1-(6-(4-(3H-imidazo[4,5-b]pyridin-7-yl)-1H-pyrazol-1-yl)pyridin-3-yl)-2,2,2-trifluoro-1-(1-methylpyrrolidin-3-yl)ethanol], for which the IC50 was over 1 µM in test [1]; over 1 µM in test [2] (Homo sapiens); 0.14 µM in test [3] (Homo sapiens, TF-1, TF-1 cells); 0.006 µM on Recombinant JAK1; 0.67 µM on Recombinant TYK2; 0.47 µM in test [4] (HT2, HT-2 cells).

Regarding `CC(C)NCCOC(c1ccc(-n2cc(-c3ccnc4[nH]cnc34)cn2)nc1)C(F)(F)F` (stereo not drawn) [Example 1241, N-(2-(1-(6-(4-(3H-imidazo[4,5-b]pyridin-7-yl)-1H-pyrazol-1-yl)pyridin-3-yl)-2,2,2-trifluoroethoxy)ethyl)propan-2-amine, TFA salt], the IC50 in test [2] (Homo sapiens) is over 1 µM; on Recombinant JAK2 it was over 0.1 µM; in test [3] (Homo sapiens, TF-1, TF-1 cells) it was over 0.5 µM; at Recombinant JAK1, under 0.1 µM; at Recombinant JAK3 it was under 0.1 µM; on Recombinant TYK2, over 1 µM. In addition, the IC50 in test [4] (HT2, HT-2 cells) was over 0.75 µM.

As to `CNC(=O)CC(c1ccc(-n2cc(-c3ccnc4[nH]cnc34)cn2)nc1)C(F)(F)F` (stereo not drawn) [Example 1145, 3-(6-(4-(3H-imidazo[4,5-b]pyridin-7-yl)-1H-pyrazol-1-yl)pyridin-3-yl)-4,4,4-trifluoro-N-methylbutanamide], the IC50 was over 1 µM in test [2] (Homo sapiens); over 0.1 µM on Recombinant JAK2; over 0.5 µM in test [3] (Homo sapiens, TF-1, TF-1 cells); under 0.1 µM at Recombinant JAK1; under 0.1 µM at Recombinant JAK3; over 1 µM at Recombinant TYK2. Besides, the IC50 in test [4] (HT2, HT-2 cells) was over 1 µM.

On to `CNCCC(c1ccc(-n2cc(-c3ccnc4[nH]cnc34)cn2)nc1)C(F)(F)F` (stereo not drawn) [Example 1200, 3-(6-(4-(3H-imidazo[4,5-b]pyridin-7-yl)-1H-pyrazol-1-yl)pyridin-3-yl)-4,4,4-trifluoro-N-methylbutan-1-amine], for which the IC50 amounted to 1 µM in test [2]; 0.015 µM on Recombinant JAK2; 0.1 µM in test [3] (TF-1 cells); 0.023 µM at Recombinant JAK1; 0.009 µM on Recombinant JAK3; 0.52 µM at Recombinant TYK2. In test [4] (HT-2 cells), the IC50 came to 0.6 µM.

Turning to `CS(=O)(=O)NCc1ccc(-n2cc(-c3ccnc4[nH]cnc34)cn2)nc1` [Example 1090, N-((6-(4-(3H-imidazo[4,5-b]pyridin-7-yl)-1H-pyrazol-1-yl)pyridin-3-yl)methyl)methanesulfonamide], the IC50 is over 10 µM in test [2] (Homo sapiens); 0.3 µM on Recombinant JAK2; over 1 µM in test [3] (Homo sapiens, TF-1, TF-1 cells); 0.053 µM at Recombinant JAK1; 0.12 µM on Recombinant JAK3; over 1 µM on Recombinant TYK2. Also, the IC50 in test [4] (HT2, HT-2 cells) was over 1 µM.

`CN1CCC([C@@](O)(c2ccc(-n3cc(-c4ccnc5[nH]cnc45)cn3)nc2)C(F)(F)F)C1` (stereo partly drawn) [Example 1235, (R)-1-(6-(4-(3H-imidazo[4,5-b]pyridin-7-yl)-1H-pyrazol-1-yl)pyridin-3-yl)-2,2,2-trifluoro-1-(1-methylpyrrolidin-3-yl)ethanol]: the IC50 in test [1] is over 1 µM; in test [2] (Homo sapiens) it was over 1 µM; on Recombinant JAK2, over 0.03 µM; in test [3] (Homo sapiens, TF-1, TF-1 cells) it was 0.36 µM; on Recombinant TYK2, over 1 µM; in test [4] (HT2, HT-2 cells), 0.55 µM.

For `CC(C)N1CC(C(O)(c2ccc(-n3cc(-c4ccnc5[nH]cnc45)cn3)nc2)C(F)(F)F)C1` (stereo not drawn) [Example 1237, 1-(6-(4-(3H-imidazo[4,5-b]pyridin-7-yl)-1H-pyrazol-1-yl)pyridin-3-yl)-2,2,2-trifluoro-1-(1-isopropylazetidin-3-yl)ethanol], the IC50 in test [1] was over 3 µM; in test [2] (Homo sapiens), over 1 µM; at Recombinant JAK2, 0.01 µM; in test [3] (Homo sapiens, TF-1, TF-1 cells) it was 0.19 µM; on Recombinant JAK3, 0.005 µM; in test [4] (HT2, HT-2 cells), over 0.5 µM.

Turning to `O[C@](c1ccc(-n2cc(-c3ccnc4[nH]cnc34)cn2)nc1)(C1CCN(C2COC2)C1)C(F)(F)F` (stereo partly drawn) [Example 1243, (S)-1-(6-(4-(3H-imidazo[4,5-b]pyridin-7-yl)-1H-pyrazol-1-yl)pyridin-3-yl)-2,2,2-trifluoro-1-(1-(oxetan-3-yl)pyrrolidin-3-yl)ethanol], the IC50 in test [2] (Homo sapiens) is over 1 µM; on Recombinant JAK2, under 0.1 µM; in test [3] (Homo sapiens, TF-1, TF-1 cells) it was over 1 µM; at Recombinant JAK1, under 0.1 µM; on Recombinant JAK3, under 0.1 µM; on Recombinant TYK2, over 1 µM. In addition, in test [4] (HT2, HT-2 cells), the IC50 was over 1 µM.

For `FC(F)(F)[C@H](c1ccc(-n2cc(-c3ccnc4[nH]cnc34)cn2)nc1)C1COC1` (single isomer, unassigned) [Example 1185], the IC50 is over 1 µM in test [2] (Homo sapiens); over 0.1 µM at Recombinant JAK2; 2 µM in test [3] (Homo sapiens, TF-1, TF-1 cells); under 0.1 µM at Recombinant JAK1; over 0.1 µM at Recombinant JAK3; over 1 µM on Recombinant TYK2. Also, in test [4] (HT2, HT-2 cells), the IC50 was over 3 µM.

`CCC(c1ccc(-n2cc(-c3ccnc4[nH]cnc34)cn2)nc1)C(F)(F)F` (stereo not drawn) [Example 1122, 7-(1-(5-(1,1,1-trifluorobutan-2-yl)pyridin-2-yl)-1H-pyrazol-4-yl)-3H-imidazo[4,5-b]pyridine]: the IC50 in test [2] (Homo sapiens) is over 1 µM; at Recombinant JAK2 it was over 0.5 µM; in test [3] (Homo sapiens, TF-1, TF-1 cells), over 1 µM; at Recombinant JAK1, over 0.1 µM; at Recombinant JAK3, over 0.5 µM; at Recombinant TYK2, over 1 µM. In test [4] (HT2, HT-2 cells), the IC50 is over 1 µM.

For the molecule `O=C(NC1CC1)NC(c1ccc(-n2cc(-c3ccnc4[nH]cnc34)cn2)nc1)C(F)(F)F` (stereo not drawn) [Example 1178, 1-(1-(6-(4-(3H-imidazo[4,5-b]pyridin-7-yl)-1H-Pyrazol-1-yl)pyridin-3-yl)-2,2,2-trifluoroethyl)-3-cyclopropylurea], the IC50 was 1 µM in test [2] (Homo sapiens); under 0.1 µM at Recombinant JAK2; over 1 µM in test [3] (Homo sapiens, TF-1, TF-1 cells); under 0.1 µM on Recombinant JAK1; under 0.1 µM on Recombinant JAK3; over 1 µM at Recombinant TYK2. Moreover, the IC50 in test [4] (HT2, HT-2 cells) was over 1 µM.
